Reference: ChEMBL document CHEMBL1201862, “PubChem BioAssay data set” (2004)
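Values below derive from 48-hour exposures of cells grown in 96-well plates, with endpoints linearly interpolated between the two concentrations bracketing the appropriate inhibition level. GI50 is the concentration that inhibits growth by half.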 Activity calls are given as the source filed them. Rule as the data show it: active = GI50 up to about 1.1 µM and inactive = higher. Where a SMILES comes first, the peptide text is derived from it. Bridges are numbered along the chain shown (N, C = ends). [ ]: non-standard residue; d: D form. The star is where a group is joined. ξ: configuration not given here. X28 = O=C(/C=C/C=C/C=C/C=C/C=C/C(=O)*)NC1=C(O)CCC1=O; NMeA = CN[C@@H](C)C(=O)O; ξF = NC(Cc1ccccc1)C(=O)O; ξA = CC(N)C(=O)O

Assays:
Test in all cases: NCI anticancer screen, dose series, 48 h
[1] = tested on: BT-549
[2] = tested on: CAKI-1
[3] = tested on: CCRF-CEM
[4] = tested on: HCT-116
[5] = tested on: LOX IMVI
[6] = tested on: MCF7
[7] = tested on: NCI-H226
[8] = tested on: NCI/ADR-RES
[9] = tested on: OVCAR-3
[10] = tested on: OVCAR-4
[11] = tested on: OVCAR-5
[12] = tested on: OVCAR-8
[13] = tested on: SK-MEL-5
[14] = tested on: SNB-75
[15] = tested on: U-251
[16] = tested on: UACC-257
[17] = tested on: UO-31
[18] = tested on: HOP-92
[19] = tested on: M14

SMILES	GI50 [1]	GI50 [2]	GI50 [3]	GI50 [4]	GI50 [5]	GI50 [6]	GI50 [7]	GI50 [8]	GI50 [9]	GI50 [10]	GI50 [11]	GI50 [12]	GI50 [13]	GI50 [14]	GI50 [15]	GI50 [16]	GI50 [17]	GI50 [18]	GI50 [19]
Cc1cnc(/C=N\NC(N)=S)c2cccc(N)c12	0.536 µM (active)	0.516 µM (active)	0.278 µM (active)	0.724 µM (active)	0.445 µM (active)	0.526 µM (active)	1.39 µM (inactive)	1.84 µM (inactive)	0.426 µM (active)	1.95 µM (inactive)	5.46 µM (inactive)	0.838 µM (active)	2.04 µM (inactive)	0.553 µM (active)	0.604 µM (active)	2.54 µM (inactive)	0.52 µM (active)		
Cc1ccc(C(=O)N/N=C(\N=N\c2ccccc2C(=O)O)c2ccc(N(C)C)cc2)cc1	> 100 µM (inactive)	> 100 µM (inactive)	43.5 µM (inactive)	> 100 µM (inactive)	> 100 µM (inactive)	> 100 µM (inactive)	> 100 µM (inactive)	71.6 µM (inactive)	22.2 µM (inactive)	64.7 µM (inactive)	> 100 µM (inactive)	> 100 µM (inactive)	> 100 µM (inactive)		> 100 µM (inactive)	> 100 µM (inactive)	80.4 µM (inactive)	> 100 µM (inactive)	64.6 µM (inactive)
CC(C1CCCC1=O)C1CCCC1=O (stereo unspecified)	> 100 µM (inactive)	> 100 µM (inactive)	> 100 µM (inactive)	> 100 µM (inactive)	> 100 µM (inactive)	> 100 µM (inactive)	> 100 µM (inactive)	> 100 µM (inactive)		> 100 µM (inactive)	> 100 µM (inactive)	> 100 µM (inactive)	> 100 µM (inactive)	> 100 µM (inactive)	> 100 µM (inactive)	> 100 µM (inactive)	> 100 µM (inactive)		> 100 µM (inactive)
Fc1cc(-c2cc(-c3ccccc3)n[nH]2)c(Cl)cc1Cl	> 100 µM (inactive)	> 100 µM (inactive)	82.2 µM (inactive)	> 100 µM (inactive)	99.1 µM (inactive)		50.7 µM (inactive)	> 100 µM (inactive)	> 100 µM (inactive)	> 100 µM (inactive)	> 100 µM (inactive)	> 100 µM (inactive)	> 100 µM (inactive)	> 100 µM (inactive)	51.5 µM (inactive)	> 100 µM (inactive)	> 100 µM (inactive)	> 100 µM (inactive)	> 100 µM (inactive)
Nc1nc2ccc(Sc3ccc4nc(N)[nH]c(=O)c4c3)cc2c(=O)[nH]1	> 100 µM (inactive)	> 100 µM (inactive)	> 100 µM (inactive)	> 100 µM (inactive)		> 100 µM (inactive)	14.1 µM (inactive)	> 100 µM (inactive)	> 100 µM (inactive)	> 100 µM (inactive)	> 100 µM (inactive)	> 100 µM (inactive)	> 100 µM (inactive)	> 100 µM (inactive)	42.5 µM (inactive)	> 100 µM (inactive)	> 100 µM (inactive)	> 100 µM (inactive)	> 100 µM (inactive)
CC1=NN=C(N)N/C1=C\C(Sc1ccc(Cl)cc1)c1ccc([N+](=O)[O-])cc1 (stereo unspecified)	80 µM (inactive)	> 100 µM (inactive)	27.5 µM (inactive)	39.8 µM (inactive)	51.8 µM (inactive)	57.9 µM (inactive)	20.8 µM (inactive)	> 100 µM (inactive)		> 100 µM (inactive)	> 100 µM (inactive)	> 100 µM (inactive)	74.5 µM (inactive)		66.7 µM (inactive)	91.4 µM (inactive)	28.3 µM (inactive)	> 100 µM (inactive)	62.1 µM (inactive)
Cc1cc2nc3c(C#N)c(-c4ccccc4)cc(Nc4ccc(Cl)cc4)n3c2cc1C	> 100 µM (inactive)	> 100 µM (inactive)	4.53 µM (inactive)	> 100 µM (inactive)	> 100 µM (inactive)	> 100 µM (inactive)	> 100 µM (inactive)	> 100 µM (inactive)	6.05 µM (inactive)	> 100 µM (inactive)	> 100 µM (inactive)	48.2 µM (inactive)	> 100 µM (inactive)	> 100 µM (inactive)	15.9 µM (inactive)	> 100 µM (inactive)	> 100 µM (inactive)		> 100 µM (inactive)
Cc1ccc(C)c(COCCOCn2ccc(N)nc2=O)c1	> 100 µM (inactive)	> 100 µM (inactive)	0.785 µM (active)	> 100 µM (inactive)	> 100 µM (inactive)	> 100 µM (inactive)	> 100 µM (inactive)	> 100 µM (inactive)	> 100 µM (inactive)		> 100 µM (inactive)	> 100 µM (inactive)		> 100 µM (inactive)	> 100 µM (inactive)	> 100 µM (inactive)	> 100 µM (inactive)	> 100 µM (inactive)	> 100 µM (inactive)
O=C(c1cccs1)N(C(=O)N1CCC(c2ccccc2)CC1)c1ccccc1	27 µM (inactive)	> 100 µM (inactive)	95.5 µM (inactive)	42.5 µM (inactive)	41.5 µM (inactive)	35.5 µM (inactive)	34 µM (inactive)	24.8 µM (inactive)	53.6 µM (inactive)		> 100 µM (inactive)	39.4 µM (inactive)	16.8 µM (inactive)		46 µM (inactive)	40 µM (inactive)	18 µM (inactive)		40.6 µM (inactive)
C=C(C)C1CC(=O)C(C)=C(O)C1 (stereo unspecified)	> 100 µM (inactive)	> 100 µM (inactive)	> 100 µM (inactive)	> 100 µM (inactive)	> 100 µM (inactive)	> 100 µM (inactive)	> 100 µM (inactive)	> 100 µM (inactive)		> 100 µM (inactive)	> 100 µM (inactive)	> 100 µM (inactive)	> 100 µM (inactive)	> 100 µM (inactive)	> 100 µM (inactive)	> 100 µM (inactive)	> 100 µM (inactive)		> 100 µM (inactive)
Nc1ccc2c(c1)C1Oc3ccccc3CC1CO2 (stereo unspecified)	74.6 µM (inactive)	> 100 µM (inactive)	> 100 µM (inactive)	> 100 µM (inactive)	> 100 µM (inactive)	> 100 µM (inactive)	> 100 µM (inactive)	> 100 µM (inactive)	> 100 µM (inactive)		> 100 µM (inactive)	> 100 µM (inactive)	> 100 µM (inactive)		> 100 µM (inactive)	> 100 µM (inactive)	> 100 µM (inactive)	> 100 µM (inactive)	> 100 µM (inactive)
CN(CCNC(=S)c1cn(C)c2c1ccc1ccccc12)CCNC(=S)c1cn(C)c2c1ccc1ccccc12	> 100 µM (inactive)	> 100 µM (inactive)	17.9 µM (inactive)	24.4 µM (inactive)	18.5 µM (inactive)	33.5 µM (inactive)		> 100 µM (inactive)	> 100 µM (inactive)	11.3 µM (inactive)	> 100 µM (inactive)	> 100 µM (inactive)	> 100 µM (inactive)	10.7 µM (inactive)	23.7 µM (inactive)	46.2 µM (inactive)	32.1 µM (inactive)	5.64 µM (inactive)	
CCOc1nc2sc3c(c2c(=O)n1CCSSCCn1c(OCC)nc2sc4c(c2c1=O)CCCC4)CCCC3	> 100 µM (inactive)	> 100 µM (inactive)		> 100 µM (inactive)	> 100 µM (inactive)	> 100 µM (inactive)	56.4 µM (inactive)	> 100 µM (inactive)	> 100 µM (inactive)	> 100 µM (inactive)	> 100 µM (inactive)	67.8 µM (inactive)	> 100 µM (inactive)	> 100 µM (inactive)	> 100 µM (inactive)	> 100 µM (inactive)	> 100 µM (inactive)		> 100 µM (inactive)
O=C1C(Cl)=C(N2C(=O)CCC2=O)C(=O)c2ccccc21	20.5 µM (inactive)	19.1 µM (inactive)	2.62 µM (inactive)	22.8 µM (inactive)	27.3 µM (inactive)	17.2 µM (inactive)	> 100 µM (inactive)	89.3 µM (inactive)	17.9 µM (inactive)		20.4 µM (inactive)	37.1 µM (inactive)	19.8 µM (inactive)	> 100 µM (inactive)	23.9 µM (inactive)	25.2 µM (inactive)	15 µM (inactive)	7.83 µM (inactive)	45.7 µM (inactive)
Nc1nc(O)c2ncn(C3C=CC(CO)C3)c2n1 (stereo unspecified)	> 100 µM (inactive)	> 100 µM (inactive)		> 100 µM (inactive)		> 100 µM (inactive)	> 100 µM (inactive)	> 100 µM (inactive)	> 100 µM (inactive)	> 100 µM (inactive)	> 100 µM (inactive)	> 100 µM (inactive)	> 100 µM (inactive)	> 100 µM (inactive)	> 100 µM (inactive)	> 100 µM (inactive)	> 100 µM (inactive)	> 100 µM (inactive)	> 100 µM (inactive)
CC1NC(=O)[C@H](C)N(C)C(=O)[C@@H]2CCCN2C(=O)[C@@H](NC(=O)C(Cc2ccccc2)NC(=O)/C=C/C=C/C=C/C=C/C=C/C(=O)NC2=C(O)CCC2=O)COC(=O)[C@@H]2CCCN2C1=O (stereo partly specified) (X28-[ξF]SP[NMeA][ξA]P; ester 2-C)	> 100 µM (inactive)	40.4 µM (inactive)	> 100 µM (inactive)	> 100 µM (inactive)	> 100 µM (inactive)	> 100 µM (inactive)		> 100 µM (inactive)	> 100 µM (inactive)	> 100 µM (inactive)	> 100 µM (inactive)		> 100 µM (inactive)	64.3 µM (inactive)	> 100 µM (inactive)	> 100 µM (inactive)	29.2 µM (inactive)	78.2 µM (inactive)	> 100 µM (inactive)
